Earlier results in patent US20210361620A1 (Biosential, Inc., priority 2018, published 2021).

What was measured:
[1] = tested on: subjects with mild insomnia or longer-than-average sleep latency; conditions: for effect on sleep (hypnotic effect): ingestion of a sufficient quantity
humans = conditions: for potential side effects of supplementation: tryptophan: dose not given, melatonin: 1 mg to 5 mg, uncommon
serum albumin = serum albumin (Homo sapiens, UniProt P02768); conditions: after ingestion and absorption
Sequence of serum albumin (P02768 25-609): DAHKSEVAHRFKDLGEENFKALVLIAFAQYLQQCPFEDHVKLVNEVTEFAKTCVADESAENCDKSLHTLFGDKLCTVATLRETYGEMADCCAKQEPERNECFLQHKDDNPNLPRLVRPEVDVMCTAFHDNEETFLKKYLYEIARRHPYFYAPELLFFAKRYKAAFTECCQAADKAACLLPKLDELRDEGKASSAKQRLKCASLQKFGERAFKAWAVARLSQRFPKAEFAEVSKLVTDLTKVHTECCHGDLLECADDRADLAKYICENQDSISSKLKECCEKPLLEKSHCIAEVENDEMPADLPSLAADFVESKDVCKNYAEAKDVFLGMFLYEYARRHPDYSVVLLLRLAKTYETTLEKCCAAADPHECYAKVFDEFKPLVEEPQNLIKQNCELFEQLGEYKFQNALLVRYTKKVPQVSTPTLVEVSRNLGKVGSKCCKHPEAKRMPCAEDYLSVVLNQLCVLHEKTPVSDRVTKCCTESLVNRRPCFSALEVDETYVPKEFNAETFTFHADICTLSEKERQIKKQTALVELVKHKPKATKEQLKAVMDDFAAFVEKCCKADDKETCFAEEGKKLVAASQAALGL

## COc1ccc2[nH]cc(CCNC(C)=O)c2c1 [melatonin]
rats
  effect on glucose metabolism: antihyperglycemic effect
[1]
  effect on sleep (hypnotic effect): reduce sleep latency, increase sleep duration and efficiency, and regulate the sleep-wake cycle
humans; daytime use
  side effects of supplementation during the day: sleepiness and hypothermia
humans
  potential side effects of supplementation: drowsiness, headache, dizziness and nausea

## N[C@@H](Cc1c[nH]c2ccccc12)C(=O)O [tryptophan]
[1]; doses above 12,000 mg
  effect on sleep architecture at very high dose: disrupt sleep architecture
[1]
  effect on sleep (hypnotic effect): consistently reduces sleep latency
Serum albumin
  fraction bound to serum albumin in the circulation: approximately 80%
  fraction circulating as free tryptophan: 20%
humans
  potential side effects of supplementation: drowsiness and minimal weight loss
